Test results: the supplement of paper PMC11061612

Experiments:
Assay in all cases: combination Emax (second highest fraction inhibited in the dose matrix, 72 h); higher = more inhibition; extreme values may be limits of the assay
[1] = tested on: NCI-H1623 (Lung Adenocarcinoma)
Outline: (§1)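 Cell lines grown in DMEM/F12 or RPMI with 10% FBS were plated in 1536-well plates and held 24 hours at 37°C, 5% CO2 before 72 hours of exposure to two-drug dose matrices, with DMSO typically at 0.2%. CellTiter-Glo 2.0 luminescence gave viability, which was converted to inhibition. Vehicle wells were set to 0 and blank wells to 1. Combination Emax is the second-highest inhibition in the matrix, and Bliss excess is the observed combination effect minus the expected EA + EB − EA·EB, where EA and EB are the single-agent effects.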

[2] = tested on: SK-MM-2 (Plasma Cell Myeloma)
Outline: as §1

[3] = tested on: HSC-3 (Oral Cavity Carcinoma)
Outline: as §1

HuO-3N1 (Osteosarcoma) = tested on: HuO-3N1 (Osteosarcoma)
Outline: as §1

[4] = tested on: SNU-175 (Colorectal Carcinoma)
Outline: as §1

KYM-1 (Rhabdomyosarcoma) = tested on: KYM-1 (Rhabdomyosarcoma)
Outline: as §1

[5] = tested on: COLO-684 (Endometrial Carcinoma)
Outline: as §1

[6] = tested on: EB-3 (Burkitt's Lymphoma)
Outline: as §1

ES-2 (Ovarian Carcinoma) = tested on: ES-2 (Ovarian Carcinoma)
Outline: as §1

[7] = tested on: AsPC-1 (Pancreatic Carcinoma)
Outline: as §1

[8] = tested on: NCI-H810 (Non-Small Cell Lung Carcinoma)
Outline: as §1

[9] = tested on: RPMI-8866 (Chronic Myelogenous Leukemia)
Outline: as §1

[10] = tested on: SW684 (Other Solid Carcinomas)
Outline: as §1

[11] = tested on: NCI-H1563 (Lung Adenocarcinoma)
Outline: as §1

[12] = tested on: OVTOKO (Ovarian Carcinoma)
Outline: as §1

[13] = tested on: KYSE-70 (Esophageal Squamous Cell Carcinoma)
Outline: as §1

[14] = tested on: PANC-02-03 (Pancreatic Carcinoma)
Outline: as §1

[15] = tested on: SJRH30 (Rhabdomyosarcoma)
Outline: as §1

[16] = tested on: RERF-LC-KJ (Lung Adenocarcinoma)
Outline: as §1

SMILES	combination Emax [1]	combination Emax [2]	combination Emax [3]	combination Emax (HuO-3N1 (Osteosarcoma))	combination Emax [4]	combination Emax (KYM-1 (Rhabdomyosarcoma))	combination Emax [5]	combination Emax [6]	combination Emax (ES-2 (Ovarian Carcinoma))	combination Emax [7]	combination Emax [8]	combination Emax [9]	combination Emax [10]	combination Emax [11]	combination Emax [12]	combination Emax [13]	combination Emax [14]	combination Emax [15]	combination Emax [16]
NC1(C(=O)N[C@@H](CCO)c2ccc(Cl)cc2)CCN(c2ncnc3[nH]ccc23)CC1 [Capivasertib] + CCN(CCO)CCCOc1ccc2c(Nc3cc(CC(=O)Nc4cccc(F)c4)[nH]n3)ncnc2c1 [AZD2811] (first compound max 10 µM, 7x7, partner max 1 µM)	0.555	0.239	0.689	0.494	0.846	0.559	0.659	0.458	0.413	0.233	0.534	0.562	0.617	0.441	0.568	0.272	0.24	0.734	0.503
NC1(C(=O)N[C@@H](CCO)c2ccc(Cl)cc2)CCN(c2ncnc3[nH]ccc23)CC1 [Capivasertib] + COc1nnc2ccc(N3CCC(c4ccc(OCCN5CCN(C)C(=O)[C@H]5C)cc4)CC3)nn12 [AZD5153] (first compound max 10 µM, 7x7, partner max 1 µM)	0.52	0.887	0.861	0.481	0.649	0.874	0.782	0.752	0.766	0.268	0.582	0.839	0.579	0.76	0.604	0.358	0.602	0.876	0.877
NC1(C(=O)N[C@@H](CCO)c2ccc(Cl)cc2)CCN(c2ncnc3[nH]ccc23)CC1 [Capivasertib] + C[C@@H]1COCCN1C2=NC(=NC(=C2)C3(CC3)[S@](=N)(=O)C)C4=C5C=CNC5=NC=C4 [AZD6738] (first compound max 10 µM, 7x7, partner max 10 µM)	0.82	0.302	0.764	0.592	0.709	0.969	0.798	0.651	0.86	0.329	0.648	0.911	0.587	0.501	0.628	0.377	0.474	0.89	0.478
NC1(C(=O)N[C@@H](CCO)c2ccc(Cl)cc2)CCN(c2ncnc3[nH]ccc23)CC1 [Capivasertib] + Cn1cnc2c(F)c(Nc3ccc(Br)cc3Cl)c(C(=O)NOCCO)cc21 [Selumetinib] (first compound max 10 µM, 7x7, partner max 10 µM)	0.813	0.36	0.786	0.439	0.534	0.52	0.63	0.325	0.616	0.491	0.139	0.432	0.626	0.4	0.565	0.374	0.572	0.769	0.436
Cc1nc(Nc2ncc(C(=O)Nc3c(C)cccc3Cl)s2)cc(N2CCN(CCO)CC2)n1 [Dasatinib] + CC(=O)Nc1cccc(-n2c(=O)n(C3CC3)c(=O)c3c(Nc4ccc(I)cc4F)n(C)c(=O)c(C)c32)c1 [Trametinib] (first compound max 2 µM, 7x7, partner max 1 µM)	0.576	0.123	0.867	0.493	0.425	0.401	0.0848	0.362	0.86	0.612	0.103	0.556	0.609	0.447	0.748	0.278	0.836	0.157	0.436
COc1cc2ncnc(Nc3ccc(F)c(Cl)c3)c2cc1OCCCN1CCOCC1 [Gefitinib] + CC(C)n1c(=O)n(C)c2cnc3cc(F)c(-c4ccc(OCCCN5CCCCC5)nc4)cc3c21 [AZD1390] (first compound max 10 µM, 7x7, partner max 0.3 µM)	0.904	0.151	0.623	0.0711	0.456	0.224	0.0995	0.456	0.41	0.13	0.158	0.119	0.136	0.228	0.428	0.098	0.266	0	0.351
